Results as given in ChEMBL document CHEMBL1955717, “Synthesis and in vitro study of novel neuraminidase inhibitors against avian influenza virus” (Bioorg Med Chem, 2012).
pIC50: −log10 of the molar value.

What was measured:
Neuraminidase [1] = biological target: T1, Neuraminidase (Influenza A virus, UniProt B4URF0); parameters: species or system H7N3
Neuraminidase [2] = biological target: T1, Neuraminidase; parameters: species or system H7N1

T1 sequence (B4URF0 whole entry): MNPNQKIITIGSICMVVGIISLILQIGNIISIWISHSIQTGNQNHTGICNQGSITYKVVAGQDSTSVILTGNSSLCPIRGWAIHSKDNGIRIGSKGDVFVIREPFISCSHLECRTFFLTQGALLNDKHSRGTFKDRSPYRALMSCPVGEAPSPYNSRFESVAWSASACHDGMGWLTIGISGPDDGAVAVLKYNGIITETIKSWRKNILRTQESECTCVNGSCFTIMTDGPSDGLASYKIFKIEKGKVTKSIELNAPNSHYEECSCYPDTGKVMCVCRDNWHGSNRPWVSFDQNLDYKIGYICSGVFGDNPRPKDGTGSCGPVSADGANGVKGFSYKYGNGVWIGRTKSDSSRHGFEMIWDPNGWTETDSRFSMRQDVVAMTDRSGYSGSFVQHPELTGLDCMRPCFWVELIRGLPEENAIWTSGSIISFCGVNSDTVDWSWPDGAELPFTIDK

Compound | pIC50 (Neuraminidase [1]) | pIC50 (Neuraminidase [2])
CCC(CC)O[C@@H]1C=C(C(=O)O)C[C@H](N=[N+]=[N-])[C@H]1NC(C)=O | 8.66 | 7.07
C=CC(=O)N[C@@H]1[C@@H](N)CC(C(=O)O)=C[C@H]1OC(CC)CC | 10.00 | 7.50
C/C=C/C(=O)N[C@@H]1[C@@H](N=[N+]=[N-])CC(C(=O)O)=C[C@H]1OC(CC)CC | 4.00 | 4.29
C/C=C/C(=O)N[C@@H]1[C@@H](N)CC(C(=O)O)=C[C@H]1OC(CC)CC | 5.35 | 3.86
C=CC(=O)N[C@@H]1[C@@H](NCC(C)C)CC(C(=O)O)=C[C@H]1OC(CC)CC | 7.55 | 7.84
